From article PMC10552397 (Cell Communication and Signaling : CCS, 2023)
Where two headings read alike, the source gives them in different places.

Tests used:
HeLa GRASP55 KO cells [1] = test: Transmission electron microscopy of Golgi apparatus, HeLa GRASP55 KO; assay type: cell-based; conditions: 100 nM, 24 h, HeLa GRASP55 KO (also wt)
Protocol: HeLa wt and HeLa GRASP55 KO cells were seeded into 10 cm dishes. […] After treatment, cells were washed with Dulbecco´s phosphate-buffered saline (DPBS, Thermo Fisher Scientific, Waltham, MA, USA, #14,190,250) and then fixed using 2.5% glutaraldehyde and 4% paraformaldehyde in 0.1 M sodium cacodylate, pH 7.4 overnight at 4 °C. Then, cells were harvested with a cell scraper and centrifuged at 4,000 × g for 5 min. Cell pellets were washed twice with 0.1 M sodium cacodylate buffer, pH 7.2, then heated to 40 °C and embedded into 3% low melting agarose. The agarose was dissolved at 40 °C in a water bath and after aspiration of the supernatant a volume of approximately 10 µL was left, which was resuspended in agarose. After centrifugation at approximately 4,000 x g for 2 min, the samples were covered with 1% OsO4 in 0.1 M sodium cacodylate buffer for 60 min at RT. After washing two times with sodium cacodylate buffer for 10 min and twice with 70% EtOH for 15 min at RT, block contrast was applied using 1% uranyl acetate/1% phosphorotungstic acid in 70% EtOH (freshly prepared and filtered) for 1 h at RT. The samples were dehydrated in a graded ethanol series (90% EtOH, 96% EtOH, 100% EtOH) and embedded in SPURR epoxy resin (Serva, Heidelberg, Germany, #21,050). After polymerization at 70 °C for 24 h, 70 nm ultrathin sections were cut using an Ultracut EM UC7 (Leica, Wetzlar, Germany). […]

HeLa wt cells [2] = test: Immunofluorescence of GRASP55 and LC3; assay type: cell-based; conditions: 6 h
Protocol: For immunofluorescence microscopy, HeLa cells were seeded on glass coverslips in 24-well plates. After treatment, cells were fixed in 4% paraformaldehyde for 15 min on ice, quenched with 50 mM NH4Cl for 15 min and permeabilized with 50 µg/mL digitonin (Sigma-Aldrich, St. Louis, MO, USA, #D141) for 5 min. Fixed samples were blocked with 3% BSA (Roth, Karlsruhe, Germany, #8076) for 30 min or overnight and incubated with primary antibodies diluted in 3% BSA for 2 h. Samples were then washed three times with DPBS, incubated with the appropriate secondary antibodies diluted in 3% BSA for 30 min and washed three times with DPBS. Afterwards, cells were embedded in ProLong Glass Antifade Mountant (Thermo Fisher Scientific, Waltham, MA, USA, #P36980) containing 1 µg/mL DAPI (Roth, Karlsruhe, Germany, #6335.1). Images were recorded with an Axio Observer 7 fluorescence microscope (Carl Zeiss Microscopy, Oberkochen, Germany) using a 40x/1,4 Oil DIC M27 Plan-Apochromat objective (Carl Zeiss Microscopy, Oberkochen, Germany) and an ApoTome 2 (Carl Zeiss Microscopy, Oberkochen, Germany).

HeLa wt cells [3] = test: Immunoblot of LC3-II and SQSTM1 (autophagic flux); assay type: cell-based; conditions: 100 nM, 6 h
Protocol: For SDS PAGE and western blotting, cells were harvested by scraping, pelletized at 150 rcf and 4 °C for 5 min, washed with DPBS and quickly frozen in liquid nitrogen. Cells were lysed in lysis buffer (20 mM Tris–HCl, 150 mM NaCl, 500 µM EDTA, 1% [v/v] Triton X-100, 1 mM Na3VO4, 10 mM NaF, 2.5 mM Na4P2O7, 1X protease inhibitor cocktail [Roche, Basel, Switzerland, #4693132001]) for 30 min on ice and the lysates were cleared by centrifugation at 18,000 rcf and 4 °C for 15 min. Protein concentration was determined by Bradford assay and sample buffer was added (62.5 mM Tris, 8.6% [v/v] glycerol, 2% [w/v] SDS, 33.3 µg/mL bromophenol blue, 1% [v/v] β-mercaptoethanol). […] For CETSA analysis of TPP-TR samples, the protein concentration was determined by Pierce 660 nm Protein Assay and the protein concentration of the 36.5 °C treated sample of each treatment and replicate was used for the other nine samples of the respective sample set to display temperature-dependent total protein aggregation and precipitation. […] After separation by SDS-PAGE, proteins were transferred to PVDF membranes (Merck, Darmstadt, Germany, #IPFL00010), blocked with 5% milk powder in TBST and analyzed using the indicated primary antibodies followed by appropriate IRDye 800- or IRDye 680-conjugated secondary antibodies (LI-COR Biosciences, Lincoln, NE, USA). […]

HeLa GRASP55 KO cells [4] = test: cells; conditions: Homo sapiens, read-out: IC50 value GRASP55 KO
Protocol: Cell viability was measured using the MTT (3-(4,5-dimethylthiazol-2-yl)-2,5-diphenyltetrazolium bromide) assay. HeLa cells were seeded in 96-well plates with a density of 5*10^3 cells/well. […] After the incubation time, 20 µL of a 5 mg/mL MTT stock solution (ROTH, Karlsruhe, Germany, #4022.3) were added to the cells and they were incubated at 37 °C and 5% CO2 in a humidified atmosphere for 30 min. Upon removal of the MTT-containing medium 100 µL DMSO per well were added for extraction of the formazan. Absorbance was measured at 570 nm and 650 nm (reference) with a microplate reader (SynergyMx, BioTek, Winooski, VT, USA). After subtraction of the reference value, the mean of the absorbance of the solvent control was set as 100% and the relative viability was calculated for each sample.
GRASP55 KO cells were generated using the CRISPR/Cas9 system developed by the Zhang lab [59]. Double-stranded DNA oligos (5´-[sequence]-3´, 3´-[sequence]-5´), encoding guide RNAs (gRNAs) against the target gene were cloned into the Bbsl restriction site of pSpCas9(BB)-2A-GFP (PX458) vector gifted from Feng Zhang (Addgene plasmid #48,138; http://n2t.net/addgene:48138; RRID:Addgene_48138). […]
All IC50 values were calculated using GraphPad Prism 7.01.

CCCCCC1=C/C(=C/c2[nH]c(-c3ccc[nH]3)cc2OC)N=C1C [Prodigiosin, prodigiosin]
Golgi apparatus morphology (TEM) (HeLa GRASP55 KO cells [1]): Severe structural changes of the Golgi apparatus | co-localization of LC3 and GRASP55 (HeLa wt cells [2]; BafA1 10 nM): highly significant, dose-dependent increase | number of LC3 dots (HeLa wt cells [2]; BafA1 10 nM): increased dose-dependently | mean area of GRASP55 dots (HeLa wt cells [2]; all concentrations, vs DMSO): significantly increased | LC3-II level (HeLa wt cells [3]): accumulated | starvation-induced degradation of SQSTM1 (HeLa wt cells [3]; EBSS): blocked | IC50 (HeLa GRASP55 KO cells [4]; 24 h): 1420 nM | IC50 (HeLa GRASP55 KO cells [4]; 72 h): 83.3 nM
